# In the supplement of paper PMC10307832:
# Assays:
# Experiment in all cases: relative viability (nuclei count vs DMSO), 5 days (fraction); higher = more cells survive
# GW-2580 + Trametinib = compound: COC1=CC=C(C=C1)COC2=C(C=C(C=C2)CC3=CN=C(N=C3N)N)OC [GW-2580] + CC(=O)Nc1cccc(-n2c(=O)n(C3CC3)c(=O)c3c(Nc4ccc(I)cc4F)n(C)c(=O)c(C)c32)c1 [Trametinib] (partner 0.02 µM)
# Method in brief: (§1)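 Lung cancer cell lines in 1536-well plates were dosed by pin tool the day after seeding, either with one drug alone or with a fixed anchor-drug dose plus five library-drug doses (not always all listed) in √10 steps. After 5 days, cells were fixed and their nuclei stained in one step (final 0.05% Triton X-100, 1% formaldehyde, 1 ug/ml Hoechst), then counted on 4× images. Relative viability is the nuclei count in treated wells divided by that in vehicle wells. Values are medians of duplicate plates.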
# GW-2580 + Navitoclax = compound: COC1=CC=C(C=C1)COC2=C(C=C(C=C2)CC3=CN=C(N=C3N)N)OC [GW-2580] + CC1(C)CCC(c2ccc(Cl)cc2)=C(CN2CCN(c3ccc(C(=O)NS(=O)(=O)c4ccc(N[C@H](CCN5CCOCC5)CSc5ccccc5)c(S(=O)(=O)C(F)(F)F)c4)cc3)CC2)C1 [Navitoclax] (partner 0.5 µM)
# Method in brief: as §1
# GW-2580 + Palbociclib = compound: COC1=CC=C(C=C1)COC2=C(C=C(C=C2)CC3=CN=C(N=C3N)N)OC [GW-2580] + CC(=O)c1c(C)c2cnc(Nc3ccc(N4CCNCC4)cn3)nc2n(C2CCCC2)c1=O [Palbociclib] (partner 0.5 µM)
# Method in brief: as §1
# GW-2580 + Linsitinib = compound: COC1=CC=C(C=C1)COC2=C(C=C(C=C2)CC3=CN=C(N=C3N)N)OC [GW-2580] + C[C@]1(O)C[C@@H](c2nc(-c3ccc4ccc(-c5ccccc5)nc4c3)c3c(N)nccn32)C1 [Linsitinib] (partner 1 µM)
# Method in brief: as §1
# Fedratinib + Phenformin = compound: Cc1cnc(Nc2ccc(OCCN3CCCC3)cc2)nc1Nc1cccc(S(=O)(=O)NC(C)(C)C)c1 [Fedratinib] + N=C(N)NC(=N)NCCc1ccccc1 [Phenformin] (partner 250 µM)
# Method in brief: as §1
Cell Line,relative viability (GW-2580 + Trametinib; first compound 0.08 µM),relative viability (GW-2580 + Trametinib; first compound 0.8 µM),relative viability (GW-2580 + Trametinib; first compound 2.53 µM),relative viability (GW-2580 + Trametinib; first compound 8 µM),relative viability (GW-2580 + Navitoclax; first compound 0.08 µM),relative viability (GW-2580 + Navitoclax; first compound 0.8 µM),relative viability (GW-2580 + Navitoclax; first compound 2.53 µM),relative viability (GW-2580 + Navitoclax; first compound 8 µM),relative viability (GW-2580 + Palbociclib; first compound 0.08 µM),relative viability (GW-2580 + Palbociclib; first compound 0.8 µM),relative viability (GW-2580 + Palbociclib; first compound 2.53 µM),relative viability (GW-2580 + Palbociclib; first compound 8 µM),relative viability (GW-2580 + Linsitinib; first compound 0.08 µM),relative viability (GW-2580 + Linsitinib; first compound 0.8 µM),relative viability (GW-2580 + Linsitinib; first compound 2.53 µM),relative viability (GW-2580 + Linsitinib; first compound 8 µM),relative viability (Fedratinib + Phenformin; first compound 0.1 µM),relative viability (Fedratinib + Phenformin; first compound 0.3162 µM),relative viability (Fedratinib + Phenformin; first compound 1 µM)
LU99A,0.668,0.646,0.499,0.462,0.887,0.97,0.681,0.729,0.476,0.444,0.356,0.376,0.749,0.57,0.427,0.517,0.864,0.894,0.755
LXF-289,0.724,0.708,0.688,0.651,1.02,0.963,0.948,0.821,0.616,0.64,0.599,0.602,1.02,0.992,0.997,0.858,0.503,0.488,0.517
NCI-H23,0.398,0.371,0.404,0.395,0.77,0.75,0.774,0.87,0.529,0.549,0.469,0.545,0.728,0.626,0.524,0.517,0.772,0.81,0.716
NCI-H322M,0.466,0.485,0.428,0.59,1.07,1.31,1.11,1.22,0.5,0.453,0.476,0.29,1.01,0.958,0.857,1.05,0.722,0.774,0.436
NCI-H441,0.409,0.463,0.483,0.374,1.03,0.33,0.575,0.515,0.228,0.212,0.206,0.2,0.425,0.763,0.351,0.625,0.812,0.747,0.727
NCI-H460,0.286,0.168,0.0886,0.187,1.46,1.37,0.941,1.15,0.147,0.339,0.146,0.248,1.04,1.17,0.604,0.795,0.382,0.516,0.459
NCI-H520,0.736,0.606,0.608,0.539,1.18,1.3,1.45,1.25,0.228,0.206,0.228,0.208,1.03,1.18,1.16,0.985,0.431,0.564,0.399
NCI-H647,0.474,0.469,0.406,0.479,1.09,1.19,1.18,1.3,0.384,0.398,0.41,0.317,1.39,1.39,1.09,1.33,0.475,0.473,0.309
NCI-H727,0.417,0.382,0.364,0.383,0.454,0.538,0.402,0.384,0.576,0.625,0.606,0.54,0.241,0.298,0.226,0.284,0.76,0.477,0.352
NCI-H838,0.576,0.514,0.411,0.632,1.09,1.2,1.03,1.36,0.228,0.25,0.2,0.251,1.14,1.19,1.01,1.06,0.468,0.67,0.414
NCI-H1355,0.469,0.502,0.35,0.443,0.984,1.08,0.827,0.944,0.407,0.439,0.337,0.322,0.823,0.884,0.694,0.809,0.379,0.467,0.327
NCI-H1395,0.975,0.969,0.988,1.08,1.08,1.06,1.13,1.11,0.594,0.603,0.57,0.613,1.07,1.08,0.97,0.931,0.392,0.378,0.47
NCI-H1437,0.524,0.571,0.448,0.415,1.16,1.15,0.928,0.879,0.307,0.338,0.297,0.262,1.08,1.3,0.942,0.728,0.318,0.346,0.349
NCI-H1651,0.795,0.849,0.786,0.807,1.04,1.15,0.95,1.18,0.503,0.594,0.499,0.557,1.06,1.04,1,0.982,0.287,0.318,0.247
NCI-H1666,0.846,0.767,0.796,0.872,0.946,1.1,0.856,0.69,0.647,0.65,0.649,0.64,0.765,1.02,0.742,0.724,0.57,0.575,0.522
NCI-H1734,0.765,0.69,0.695,0.647,1.04,0.935,0.857,0.76,0.364,0.432,0.37,0.311,0.899,0.839,0.895,0.911,0.382,0.385,0.353

Cell Line,relative viability (GW-2580 + Trametinib; first compound 0.08 µM),relative viability (GW-2580 + Trametinib; first compound 0.8 µM),relative viability (GW-2580 + Trametinib; first compound 2.53 µM),relative viability (GW-2580 + Trametinib; first compound 8 µM),relative viability (GW-2580 + Navitoclax; first compound 0.08 µM),relative viability (GW-2580 + Navitoclax; first compound 0.8 µM),relative viability (GW-2580 + Navitoclax; first compound 2.53 µM),relative viability (GW-2580 + Navitoclax; first compound 8 µM),relative viability (GW-2580 + Palbociclib; first compound 0.08 µM),relative viability (GW-2580 + Palbociclib; first compound 0.8 µM),relative viability (GW-2580 + Palbociclib; first compound 2.53 µM),relative viability (GW-2580 + Palbociclib; first compound 8 µM),relative viability (GW-2580 + Linsitinib; first compound 0.08 µM),relative viability (GW-2580 + Linsitinib; first compound 0.8 µM),relative viability (GW-2580 + Linsitinib; first compound 2.53 µM),relative viability (GW-2580 + Linsitinib; first compound 8 µM),relative viability (Fedratinib + Phenformin; first compound 0.1 µM),relative viability (Fedratinib + Phenformin; first compound 0.3162 µM),relative viability (Fedratinib + Phenformin; first compound 1 µM)
NCI-H1755,0.786,0.838,0.777,0.702,1.04,1.04,0.894,0.831,0.458,0.422,0.455,0.41,1.05,1.17,0.955,0.761,0.561,0.593,0.518
NCI-H1792,0.49,0.502,0.388,0.337,0.534,0.816,0.26,0.668,0.96,0.997,–,0.678,0.684,0.569,0.263,0.592,–,0.77,0.338
NCI-H1793,0.467,0.425,0.344,0.464,0.433,0.266,0.833,0.415,0.412,0.345,0.28,0.273,0.93,0.934,0.814,0.824,0.27,0.178,0.312
NCI-H1915,0.312,0.288,0.251,0.279,0.858,0.898,0.778,0.837,0.608,0.735,0.597,0.492,1.2,1.13,1.1,1.11,0.374,0.361,0.298
NCI-H1944,0.463,0.387,0.336,0.377,1.09,1.1,1.03,0.988,0.33,0.387,0.29,0.255,1.32,1.4,1.27,1.07,0.194,0.228,0.213
NCI-H1975,0.34,0.38,0.306,0.275,1.2,1.3,1.21,0.98,0.738,0.944,0.524,0.586,1.19,0.931,0.89,0.875,0.416,0.407,0.37
NCI-H1993,0.507,0.576,0.522,0.519,0.932,1.14,–,0.948,0.744,0.748,0.563,0.647,0.757,0.735,–,0.714,0.508,0.476,0.493
NCI-H2009,0.284,0.262,0.266,0.273,1.25,1.22,1.15,1.02,0.193,0.179,0.212,0.248,1.14,1.21,1.18,1.06,0.334,0.486,0.419
NCI-H2023,0.523,0.639,0.541,0.577,0.914,1.06,0.973,1.01,0.398,0.477,0.368,0.31,0.643,0.864,0.654,0.67,0.431,0.463,0.456
NCI-H2085,0.526,0.515,0.484,0.638,1.09,1.11,1.03,1.07,0.507,0.467,0.462,0.438,0.818,1.13,0.978,0.879,0.671,0.749,0.688
NCI-H2087,0.178,0.204,0.2,0.227,0.956,1.16,0.886,0.88,0.196,0.274,0.216,0.252,1.08,0.935,0.924,0.818,0.45,0.477,0.379
NCI-H2126,0.547,0.575,0.5,0.649,0.915,0.875,0.808,0.921,0.352,0.365,0.335,0.356,0.739,0.731,0.653,0.743,0.532,0.569,0.498
NCI-H2228,0.483,0.51,0.364,0.511,1.01,0.84,0.869,0.723,0.793,1.03,0.822,0.843,0.88,0.664,0.79,0.633,0.226,0.252,0.358
NCI-H2347,0.294,0.277,0.266,0.268,0.899,0.777,0.708,0.804,0.382,0.453,0.451,0.426,0.996,0.864,0.954,0.884,0.508,0.225,0.494
NCI-H2405,0.68,0.586,0.596,0.563,0.888,0.742,0.928,0.66,0.512,0.546,0.463,0.49,0.979,0.85,0.886,0.861,0.315,0.412,0.446
NCI-H3122,0.305,0.264,0.18,0.234,1.04,1.06,1.13,0.892,0.207,0.199,0.189,0.195,0.993,1.13,1.16,1.05,0.292,0.407,0.339
